The nature of test [1]: Compound was evaluated for cytotoxicity against human ovarian cancer cell SKOV-3. Particulars: Cancer cell lines. Type of test: functional, cell-based.
Test [2] in a line: Compound was evaluated for cytotoxicity against human ovarian cancer cell A2780. Type of test: functional, cell-based. The settings on record: Cancer cell lines.
Test [3] can be described thus: Compound was evaluated for cytotoxicity against human ovarian cancer cell A2780R. The settings on record: Cancer cell lines. Type of test: functional, cell-based.
The nature of test [4]: Compound was evaluated for cytotoxicity against human ovarian cancer cell CHI. Type of test: functional, cell-based. The settings on record: Cancer cell lines.
The nature of test [5]: Compound was evaluated for cytotoxicity against human ovarian cancer cell CHI R. Particulars: Cancer cell lines. The test is classed as functional, cell-based.
In test [6] the target is Telomerase reverse transcriptase (Homo sapiens, UniProt O14746). The test can be described thus: Inhibitory activity against human ovarian cancer cell (A2780 cells) Telomerase. Type of test: cell-based.
Chain of Telomerase reverse transcriptase (O14746 whole entry): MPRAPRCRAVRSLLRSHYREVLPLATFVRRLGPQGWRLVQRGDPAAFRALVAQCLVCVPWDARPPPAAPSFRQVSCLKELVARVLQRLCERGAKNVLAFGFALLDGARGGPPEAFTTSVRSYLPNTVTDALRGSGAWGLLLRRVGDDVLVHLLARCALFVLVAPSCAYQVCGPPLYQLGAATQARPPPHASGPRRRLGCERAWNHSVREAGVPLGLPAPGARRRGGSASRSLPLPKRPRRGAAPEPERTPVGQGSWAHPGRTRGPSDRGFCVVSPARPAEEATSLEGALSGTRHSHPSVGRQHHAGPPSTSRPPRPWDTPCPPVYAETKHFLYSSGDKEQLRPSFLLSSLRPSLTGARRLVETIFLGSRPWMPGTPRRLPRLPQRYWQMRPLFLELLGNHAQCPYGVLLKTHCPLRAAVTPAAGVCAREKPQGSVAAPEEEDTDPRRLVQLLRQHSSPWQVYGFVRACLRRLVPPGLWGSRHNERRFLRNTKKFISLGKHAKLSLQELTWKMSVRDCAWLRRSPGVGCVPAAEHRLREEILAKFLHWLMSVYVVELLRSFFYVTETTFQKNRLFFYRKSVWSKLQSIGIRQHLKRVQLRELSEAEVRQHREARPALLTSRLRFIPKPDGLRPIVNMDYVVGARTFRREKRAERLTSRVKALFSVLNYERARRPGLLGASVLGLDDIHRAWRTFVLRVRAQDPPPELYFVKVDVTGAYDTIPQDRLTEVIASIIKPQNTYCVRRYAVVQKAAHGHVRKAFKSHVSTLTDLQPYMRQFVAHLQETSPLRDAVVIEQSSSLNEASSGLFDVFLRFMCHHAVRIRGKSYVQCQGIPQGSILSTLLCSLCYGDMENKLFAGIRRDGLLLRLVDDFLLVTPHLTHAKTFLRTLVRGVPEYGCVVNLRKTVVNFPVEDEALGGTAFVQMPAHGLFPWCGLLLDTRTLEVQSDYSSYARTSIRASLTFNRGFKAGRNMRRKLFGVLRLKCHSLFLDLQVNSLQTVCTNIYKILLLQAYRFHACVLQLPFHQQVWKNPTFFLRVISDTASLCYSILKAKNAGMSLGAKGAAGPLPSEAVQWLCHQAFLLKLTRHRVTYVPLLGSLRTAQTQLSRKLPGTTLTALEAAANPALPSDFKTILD

A word on the IC50: it is the concentration that gives 50% inhibition. A higher IC50 goes with lower potency. `CN(C)CCc1ccc2nc3c4ccccc4n(CCN(C)C)c3cc2c1`: the IC50 in test [1] amounted to 6.3 µM; in test [2] it was 12.5 µM; in test [3] it was 10.5 µM; in test [4], 8.4 µM; in test [5], 12.5 µM; in test [6], 16 µM.

With `CCN(CC)CCOc1ccc2c(c1)OC1C(=O)c3ccccc3C(=O)C21` (stereo not given), the IC50 amounted to 3.6 µM in test [1], 0.15 µM in test [2], 0.18 µM in test [4] and 7 µM in test [6].

As for `c1ccc2nc3c(cc2c1)[nH]c1ccccc13` [QUINDOLINE], the IC50 came out at 66 µM in test [1]; 21.5 µM in test [2]; 24.5 µM in test [3]; 15.5 µM in test [4]; 30 µM in test [5].

The record behind these values is ChEMBL document CHEMBL1133308, “A novel inhibitor of human telomerase derived from 10H-indolo[3,2-b]quinoline” (Bioorg Med Chem Lett, 2000).
